“Also recorded” adds a separate entry of the source. Read-outs that look alike come from different tables or passages of the source.

This note sets out measurements from patent US9970924B2, “Mechanism and drug targets for reducing cell edema (neuroprotection) and cytoplasmic excitability in astrocytes in normal and pathological states” (CELICA D.O.O., priority 2013, dated 2018).

Test [1] concerns intracellular cAMP levels in astrocytes. In words: FRET measurements of cAMP in living primary astrocytes transfected with Epac1-camps. To be noted: for effect on ADR triggered FRET response: 1 μM ADR.
Source text: Astrocytes expressing Epac1-camps or AKAR2 FRET construct were examined with a Plan NeoFluoar 40×/1.3 Oil DIC immersion objective (Carl Zeiss, Jena, Germany) and 2-fold zoom factor using Zeiss LSM510 META confocal microscope (Carl Zeiss, Jena, Germany). Cells were excited at 458 nm and images (512×512) were acquired every 3.5 s or 7 s using Lambda stack acquisition. Emission spectra were collected from META detector in eight channels (lambda stack) ranging from 470 nm to 545 nm, each with a 10.7-nm width. Two-channel (CFP and YFP) images were generated from lambda stacks by analytical software “Extract channels”. Channels with emission spectra 470- and 481-nm and emission spectra 513-, 524-, and 534-nm were extracted to CFP channel and YFP channel, respectively. YFP and CFP fluorescence intensities were quantified within a region of interest selected for individual cell expressing Epac1-camps or AKAR2 using LSM 510 META software. In the graphs, FRET signal is reported as the ratio of YFP to CFP fluorescence signal after subtracting the background fluorescence from both YFP and CFP signals using Sigma Plot. The values of FRET signals were normalized (set to 1.0) at the onset of the experiments. The decrease in FRET signals reflects an increase in [cAMP]i.
500 μM 3-Chloro-5-hydroxybenzoic acid (3-Cl-5-HBA; GPR81 receptor exogenous agonist).
The changes in YFP/CFP fluorescence emission ratio were normalized to baseline ratio values. Single-exponential (F=F0+c×exp (−t/τ)) decay functions or single-exponential rise to maximum functions (F=F0+c×(1−exp(−t/τ))) were fitted to the diagrams with YFP/CFP fluorescence emission ratios using SigmaPlot. The time-constant (τ) and YFP/CFP emission ratio amplitudes (c) were determined from the fitted curves. F is YFP/CFP emission ratio at time t, F0 is baseline YFP/CFP emission ratio, c is YFP/CFP emission ratio amplitude of F(t=0)−F0, and τ is the time constant of individual exponential component.
The subject of test [2] is astrocytes. In words: Hypotonically induced cell swelling (cell surface area) of astrocytes. Conditions: pretreated cells, hypotonic medium ~60% of control osmolarity. Type of test: cell-based. The source says: (§1) LSM 510 Meta software was used to measure cell area and perimeter of isolated Epac1-camps positive astrocytes before and after treatment of cell with different reagents.

The test system of test [3] is [Ca2+]i in astrocytes. In words: Fluo-4 AM measurements of [Ca2+]i in cultured astrocytes. Type of test: cell-based. Conditions: for effect on hypotonicity-elicited periodic elevations in [Ca2+]i: 1 μM ADR or 10 μM Iso applied after hypotonic medium; for intracellular calcium levels on simultaneous treatment with hypotonic medium: 1 μM ADR or 10 μM Iso with hypotonic medium; for effect on ATP-induced elevation in cytosolic calcium levels: 1 mM ATP + 1 μM ADR or 10 μM Iso; for oscillations in intracellular calcium levels: agent alone: 1 μM ADR; for oscillations in intracellular calcium levels / intracellular Ca2+ levels (F/F0) within first 100 s after stimulation: 10 μM Iso; for intracellular Ca2+ levels (F/F0) within first 100 s after stimulation: agent alone: 1 mM ATP. How it is done: Live astrocytes were incubated for 30 min at room temperature in medium containing 2 μM of fluorescent dye Fluo-4 AM (Molecular Probes, Invitrogen, Eugene, Oreg., USA). Astrocytes were then transferred to dye-free standard saline solution for at least 30 min before experimentation to allow for cleavage of the AM ester group. Time lapse images were obtained every 3.5 s for up to 10 min with the inverted Zeiss LSM780 confocal microscope with oil-immersion plan apochromatic objective (63×, 1.4 NA) and 488-nm Ar-Ion laser excitation. Emission light was acquired with a 505-530-nm bandpass emission filter. […] Average fluorescence intensity before stimulation of each cell was subtracted from intensities after stimulation (ΔF). Average fluorescence intensity changes normalized to baseline fluorescence intensity (F/F0) were determined for the first 100 s after stimulation.

Test [4] concerns astrocytes. Put plainly: Exocytotic fusion events of Alexa Fluor 546 dextran-labeled vesicles in cultured astrocytes. Type of test: cell-based. Conditions: for number of ATP triggered fusion events per cell: 1 mM ATP + 1 μM ADR or 10 μM Iso. How it is done: Time-lapse confocal images were obtained every 2 s for 10 min with the inverted Zeiss LSM780 and Zeiss LSM510 META confocal microscopes with oil-immersion plan apochromatic objective (63×, 1.4 NA) and 543-nm He—Ne laser excitation. […] Cells were scanned by eye for an individual exocytotic event by rapidly replaying the movie in forward and reverse directions. The onset of exocytosis was defined as the first frame showing a significant decrease in Alexa Fluor^546-dextran. A circular region of interest was centered on the spot where the event occurred, and changes in the fluorescence intensities of Alexa Fluor^546-dextran were monitored over time.

Test [5] relates to astrocytes. Conditions: within an hour.
Source text: as §1

For test [6], the system named is GPR81 receptor / intracellular cAMP levels in astrocytes. Put plainly: FRET measurements of cAMP in living primary astrocytes transfected with AKAR2. The format is cell-based, rat.
Source text: Astrocytes expressing Epac1-camps or AKAR2 FRET construct were examined with a Plan NeoFluoar 40×/1.3 Oil DIC immersion objective (Carl Zeiss, Jena, Germany) and 2-fold zoom factor using Zeiss LSM510 META confocal microscope (Carl Zeiss, Jena, Germany). Cells were excited at 458 nm and images (512×512) were acquired every 3.5 s or 7 s using Lambda stack acquisition. Emission spectra were collected from META detector in eight channels (lambda stack) ranging from 470 nm to 545 nm, each with a 10.7-nm width. Two-channel (CFP and YFP) images were generated from lambda stacks by analytical software “Extract channels”. […] YFP and CFP fluorescence intensities were quantified within a region of interest selected for individual cell expressing Epac1-camps or AKAR2 using LSM 510 META software. In the graphs, FRET signal is reported as the ratio of YFP to CFP fluorescence signal after subtracting the background fluorescence from both YFP and CFP signals using Sigma Plot. […]
The changes in YFP/CFP fluorescence emission ratio were normalized to baseline ratio values. Single-exponential (F=F0+c×exp (−t/τ)) decay functions or single-exponential rise to maximum functions (F=F0+c×(1−exp(−t/τ))) were fitted to the diagrams with YFP/CFP fluorescence emission ratios using SigmaPlot. The time-constant (τ) and YFP/CFP emission ratio amplitudes (c) were determined from the fitted curves. […]

`CC(C)Cn1c(=O)n(C)c(=O)c2[nH]cnc21` [IBMX]: the “effect on Epac1-camps response to FSK” value in test [1] (200 μM IBMX with 50 μM FSK) was “increased Epac1-camps response to AC activator FSK”.
As to `CC(C)NCC(O)c1ccc(O)c(O)c1` (stereo not shown) [Iso, isoprenaline], the “hypotonically induced cell swelling (increase in cell surface area)” value in test [2] is “reduced”. For the same compound, in test [3], the “effect on hypotonicity-elicited periodic elevations in [Ca2+]i” value is “ceased”; the “intracellular calcium levels on simultaneous treatment with hypotonic medium” value was “transient increase in intracellular calcium levels, which was followed by a decline to basal levels”; the “effect on ATP-induced elevation in cytosolic calcium levels” value is “diminishes the elevation in cytosolic calcium levels”; the “oscillations in intracellular calcium levels” value is “not”. Moreover, the “intracellular Ca2+ levels (F/F0) within first 100 s after stimulation” value (“intracellular Ca2+ levels” below) in test [3] (1 μM ADR) is “no significant difference”. The “number of ATP triggered fusion events per cell” value in test [4] is “diminished”.
On to `Nc1ncnc2c1ncn2[C@@H]1O[C@H](COP(=O)(O)OP(=O)(O)OP(=O)(O)O)[C@@H](O)[C@H]1O` [ATP, adenosine-5′-triphosphate], for which the “intracellular Ca2+ levels” value in test [3] (1 μM ADR) is given as “increased”. Besides, the “exocytotic fusion release events” value in test [4] (1 mM ATP) is given as “triggered exocytotic fusion release events”.
As to `CNCC(O)c1ccc(O)c(O)c1` (stereo not shown) [ADR, adrenaline], in test [5], the “decrease in cell area” value is listed as 5-10% and the “increase in cell perimeter” value is listed as 30-50%. In test [2], the “hypotonically induced cell swelling (increase in cell surface area)” value was “reduces hypotonically induced cell swelling; also recorded: reduced”. In test [3] (1 μM ADR), the “frequency of calcium oscillations compared with hypotonic medium-stimulated cells” value is on record as “more frequent” and the “intracellular Ca2+ levels” value is listed as “increased”. In addition, in test [3], the “effect on hypotonicity-elicited periodic elevations in [Ca2+]i” value is given as “attenuated; also recorded: ceased”; the “intracellular calcium levels on simultaneous treatment with hypotonic medium” value was “transient increase in intracellular calcium levels, which was followed by a decline to basal levels”; the “effect on ATP-induced elevation in cytosolic calcium levels” value is listed as “diminishes the elevation in cytosolic calcium levels”; the “oscillations in intracellular calcium levels” value is reported as “induced oscillations in intracellular calcium levels”. Moreover, in test [4], the “number of ATP triggered fusion events per cell” value is given as “reduce the number of exocytotic fusion events; also recorded: diminished”. Further, the “increase in FRET response to hypotonic medium (decrease in cAMP)” value in test [1] (ADR pre-treated cells, hypotonic medium) is “reversible and slowly declined to the baseline”. In addition, the EC50 in test [1] (Rattus norvegicus, Astrocyte, read-out: concentration of ADR at which 50% of maximum cAMP increase was observed (EC50), maximum YFP/CFP ratio response, Epac1-camps, dose-response) is ~30 nM. Besides, the EC50 in test [1] (read-out: concentration of ADR at which 50% of maximum cAMP increase was observed (EC50), maximum YFP/CFP ratio response, Epac1-camps, dose-response) stood at 29 ± 0.1 nM.
For the compound `C[C@H]1O[C@@H](n2cnc3c(N)ncnc32)C[C@@H]1O` [DDA, 2′,5′-dideoxiadenosine], in test [1] (100 μM DDA), the “effect on ADR triggered FRET response” value is given as “slower decay kinetics”.
Regarding `C[C@H](O)C(=O)[O-].[Na+]` [lactate, Sodium L-lactate], the “intracellular cAMP levels (AKAR2 YFP/CFP ratio; uprise = cAMP increase)” value in test [6] (20 mM lactate) was “increase in intracellular cAMP levels”. The “intracellular cAMP levels (Epac1-camps YFP/CFP ratio; decline = cAMP increase)” value in test [1] (20 mM lactate) is on record as “increase in intracellular cAMP levels”.
In the case of `O=C(O)c1cc(O)cc(Cl)c1` [3-Cl-5-HBA], the “intracellular cAMP levels (AKAR2 YFP/CFP ratio; uprise = cAMP increase)” value in test [6] (500 μM 3-Cl-5-HBA) was “increase in intracellular cAMP levels”.
Regarding `CC(C)NCC(O)COc1cccc2ccccc12` (stereo not shown) [Pro, propranolol], in test [1] (1 μM Pro), the “effect on ADR triggered FRET response” value is given as “completely prevented”.
